Experimental findings from a melting point compilation (Tetko et al.; mined from patent text by program, amines drawn as free bases though some values may be those of a salt) are described below.

The structures appear in SMILES notation.

With `CC(=O)N1CCc2cc3c(cc21)C(=O)C(=O)N3`, the melting point is more than 250 °C.

For `CC(C)(Sc1nc2ccccc2cc1-c1ccccc1)C(=O)O`, the melting point fell in the range of 144 to 146 °C.

`CCCc1c(OCc2cc(Br)cn3c(=O)c(CCC(=O)O)cnc23)ccc(C(C)=O)c1O` gave a melting point of 239 to 242 °C.

`CCCCCCCCCCCCCCCc1cccc(OCC)c1C1NC(=O)NC(C)=C1C(=O)OC` (stereo not drawn) yielded a melting point of 127 to 129 °C.

Regarding `CON(C(=O)c1cn(C)nc1C(F)F)C(CF)Cc1c(Cl)cc(Cl)cc1Cl` (stereo not drawn), the melting point was in the range of 117 to 118 °C.

`Cc1oc(-c2ccccc2)nc1COc1ccc(Cn2cc(CCC(=O)O)c(-c3ccccc3)n2)cc1` gave a melting point of 179 to 180 °C.

`Brc1ccc(NN=C(Cc2ccco2)c2ccccc2)nc1` displayed a melting point of 105 to 107 °C.

`NC(=O)c1c(N)sc2ccccc2c1=O` showed a melting point of 277 to 279 °C.

Consider `O=C(Nc1ccccc1S(=O)(=O)N1CCCCC1)N[C@@H](Cc1ccc(Nc2nccc3cnccc23)cc1)C(=O)O`, for which the melting point is 207 °C.

With `CCOC(=O)c1cn(Cc2ccccc2)nc1OCc1ccc(OCc2nc(-c3ccco3)oc2C)c(Cl)c1`, the melting point was in the range of 153 to 154 °C.

As for `CCOc1cc(OCCCc2cn(-c3ccc(C(F)(F)F)cc3)nc2OCC)ccc1CCC(=O)O`, the melting point fell in the range of 131 to 132 °C.

The molecule `CON=C(N)Nc1nc(C)cc(C)n1` displayed a melting point of 134 to 136 °C.

The molecule `COc1cc(CCCC2OC(=O)NC2=O)ccc1OCc1nc(-c2ccccc2)oc1C` (stereo not drawn) had a melting point of 161 to 162 °C.

`CCCCc1nc(Cl)c(CC(Cc2ccccc2)C(=O)O)n1Cc1ccccc1Cl` (stereo not drawn) came in with a melting point of 138 to 139 °C.

`COc1nc(C)nc(NC(=O)NS(=O)(=O)c2cccnc2OCC2CC2)n1` returned a melting point of 165 to 167 °C.

For `OCCn1cc(C(F)(F)F)nc1-c1ccc(O)cc1`, the melting point lay in the range of 186 to 188 °C.

The molecule `O=S1(=O)N=CN(C2CCCC2)c2cc(Cl)c(Cl)cc21` came in with a melting point of 189 to 191 °C.

`C=C(CC(=O)OCC)c1cc(F)c2cc(OC)ccc2c1` gave a melting point of 50 to 52 °C.

`O=C(CCc1ccccc1)Nc1ccc([N+](=O)[O-])cc1`: the melting point lay in the range of 117 to 119 °C.

For `CC(C)C1(C)N=C(c2c(C(=O)O)ccc3ccsc23)NC1=O` (stereo not drawn), the melting point fell in the range of 200 to 202 °C.

For `CC(=O)C1CC2=C(CO1)C(=O)c1ccc(O)cc1C2=O` (stereo not drawn), the melting point was in the range of 169 to 170 °C.

`Cc1ccc2nc(N3CCNCC3)c(=O)n(-c3ccccc3)c2c1`: the melting point was in the range of 166 to 168 °C.

As to `Cc1cc(=O)n(C)c2nc(-c3ccncc3)nn12`, the melting point was 195 to 197 °C.

On to `C[C@H]1CCCC(C)(C)[C@@H]1[C@H](O)c1ccc(C(F)(F)F)cc1`, for which the melting point is 63 to 66 °C.

Consider `COc1cccc(CN2CCN(CC(=O)N3CC=C(c4cccc(C(F)(F)F)c4)n4cnc(C#N)c43)CC2)c1`, for which the melting point fell in the range of 131 to 133 °C.

Consider `CCOC(=O)c1c(C(F)(F)F)nc(C(F)F)c(C(=O)OC)c1N(C)C`, for which the melting point was in the range of 80 to 81 °C.

On to `CSc1nc2nc3cc(C(F)(F)F)ccc3cc2[nH]1`, for which the melting point was more than 270 °C.

Molecule `CSc1ccc(C(=O)c2cc(-c3ccccc3)c(N3CCOCC3)s2)cc1` came in with a melting point of 165 °C.

Turning to `COC(=O)c1cccc(C(=O)OC)c1S(=O)(=O)NC(=O)Nc1nc(OC)cc(OC)n1`, the melting point lay within 164 to 167 °C.

The molecule `Cc1cc(OS(=O)(=O)c2c(F)cccc2F)cc2c(C3CCN(C)CC3)cn(Cc3ccccc3)c12` returned a melting point of 158 °C.

As for `O=Cc1cccc(OC(=O)C(=O)Oc2cccc(C=O)c2)c1`, the melting point is 163 to 166 °C.

In turn, `OCc1cncc(-c2ccccc2)c1` yielded a melting point of 71 to 72 °C.

`Cc1ncc(Cn2c(NC3CCNCC3)nc3ccccc32)o1` had a melting point of 227 °C.

Molecule `Cc1cc(SC(C)C)c(NC(=O)CCCCCCCSc2nc3ccccc3s2)c(SC(C)C)n1` showed a melting point of 107 to 108 °C.

As to `O=C1OC(CCc2ccccc2)(c2ccccc2)CC(O)=C1CCc1ccccc1` (stereo not drawn), the melting point was 68 to 70 °C.

`O=C(Oc1cc(OC(=O)c2ccc(O)c(O)c2)c2ccccc2c1)c1ccc(O)c(O)c1` displayed a melting point of 79 to 81 °C.

In the case of `CC(=O)OC1CSC(Oc2cccc(C)n2)C(OC(C)=O)C1OC(C)=O` (stereo not drawn), the melting point worked out at 106 °C.

For the molecule `Cc1oc(COc2ccccc2/C=C/C=C/C#N)nc1-c1ccccc1`, the melting point was in the range of 128 to 129 °C.

As for `CCNC(=O)N1CCc2cc(S(=O)(=O)N3CC(c4ccccc4)NC3=O)ccc21` (stereo not drawn), the melting point was found to be 127 °C.

Molecule `CCCCCCCCCC(CC)C(=O)Nc1cc(C(=O)O)ccc1C` (racemic) had a melting point of 217 to 220 °C.

`CC1CCC(Oc2cc(F)cc(C(=O)Nc3ccc(OCCN4CCOCC4)c4ccccc34)c2)C1` (stereo not drawn) registered a melting point of 65 to 66 °C.

`N#Cc1cc([N+](=O)[O-])c(O)c(O)c1F` registered a melting point of 154 °C.

In the case of `COc1cc2c(cc1OC(C)=O)C1Cc3c(Cl)cc(OC)c(OC(C)=O)c3CN1CC2` (single isomer, unassigned; (-)), the melting point lay in the range of 202 to 203 °C.

Regarding `COc1ccc(Nc2nc(Cl)nc(NCCO)n2)cc1`, the melting point lay in the range of 169 to 173 °C.

In the case of `O=[N+]([O-])c1ccc(Oc2ccc3c(c2)OCC(c2ccccc2)O3)nc1` (stereo not drawn), the melting point was 163 to 170 °C.

Molecule `Oc1c(C2NCCc3ccccc32)ccc2ccccc12` (stereo not drawn) yielded a melting point of 117 to 120 °C.

On to `CC(C)(ON=C(C(=O)N[C@@H]1C(=O)N[C@@H]1C(N)=O)c1csc(NC(=O)CCl)n1)C(=O)OCc1ccc([N+](=O)[O-])cc1` (relative stereo), for which the melting point fell in the range of 144 to 147 °C.

As for `O=S(=O)(Cc1ccccc1)On1nnc2ccc(Cl)cc21`, the melting point lay in the range of 126 to 128 °C.

With `CC(NC(=O)c1ccc(N)cc1)C(=O)O` (stereo not drawn), the melting point was 198 to 199 °C.

In turn, `CS(=O)(=O)c1ccc(C2=C(c3ccc(Cl)cc3)CCC2)cc1` had a melting point of 128 °C.

`COC(=O)C(C)(C)n1nnc2ccc(Oc3cc(F)c(C(F)(F)F)c(Cl)c3)cc21` showed a melting point of 76.8 to 80 °C.

Turning to `CC(C)CC(N=O)C(=O)NC(CC(C)C)C(=O)O` (stereo not drawn), the melting point is 134 to 139 °C.

`O=C1CCC(c2ccc(-c3ccc(Cl)c(Cl)c3)o2)O1` (stereo not drawn) registered a melting point of 89 to 90 °C.

`O=C(O)CNC(=O)CCCC1CCCCC1` gave a melting point of 85 to 88 °C.

In turn, `NC(c1ccccc1)C12CC(CN1)C2` (stereo not drawn) returned a melting point of 46.5 to 47 °C.

For the molecule `COCn1ccnc1C(O)(c1ccccc1)c1ccc(C(F)(F)F)cc1` (stereo not drawn), the melting point was in the range of 158 to 159 °C.

In turn, `Cc1cc(Cl)cnc1NCCCNc1ncc(Cc2ccncc2)c(=O)[nH]1` returned a melting point of 90 to 92 °C.

In turn, `C=C1CCCc2c(C(=O)OCC)n(C)c3cccc1c23` displayed a melting point of 45 to 49 °C.

For the molecule `CC(C)(C)C#CC(=O)C#CC(C)(C)C`, the melting point lay in the range of 62 to 63.5 °C.

Regarding `COc1c(N(C)S(=O)(=O)c2ccc(C)cc2)ccccc1=O`, the melting point turned out to be 94.5 °C.

For the molecule `Clc1ccnc2cc3c(cc12)OCO3`, the melting point was 130 to 132 °C.

The molecule `CCOC(=O)C(Cc1ccc(C(F)(F)F)cc1)C(=O)c1ccc(F)cc1` (stereo not drawn) returned a melting point of 56 to 57 °C.

In turn, `CCCCOc1c(-c2cc(C=CC(=O)O)ccc2O)cc(C(C)(C)C)cc1C(C)(C)C` showed a melting point of 92 to 94 °C.

For the molecule `c1ccc(-c2coc3cc4c(cc23)CCC4)cc1`, the melting point was in the range of 43 to 46 °C.

Turning to `CN1CCC(C)(O)C(C)(C)C1Cc1ccccc1` (stereo not drawn), the melting point was in the range of 95 to 103 °C.

`CC1(C)CC(=O)c2c(-c3ccccc3)sc(-c3nccs3)c2C1` registered a melting point of 141 to 143 °C.

The molecule `Cc1cc(SC2=C(O)CC(CCc3ccc(O)cc3)(CCc3ccc(O)cc3)OC2=O)c(C(C)(C)C)cc1OS(=O)(=O)N(C)C` yielded a melting point of 139 °C.

As to `COc1ccc(CCOc2cc(-c3cccc(C(=O)O)c3)ccn2)cc1OC`, the melting point is 148 to 149 °C.

The molecule `CCOC(=O)C(=CNc1nnc(N2CCOC(C)C2)s1)C(=O)OCC` (stereo not drawn) returned a melting point of 89 to 91 °C.

Turning to `C=CCOc1ccc2oc(C(=O)OCC)cc2c1`, the melting point was in the range of 34 to 36 °C.

In turn, `O=C(O)CN1C(=O)C(=Cc2ccc(OCc3ccccc3)c(OCc3ccccn3)c2)SC1=S` returned a melting point of 204 to 207 °C.

The molecule `COc1ccc2c(c1)CCC1C2CCC2(C)C1CCC2N(C)CCC(C)C` (stereo not drawn) displayed a melting point of 80 to 80.5 °C.

The molecule `CC(Oc1ccc(CNc2ccc(Cl)cc2)cc1)C(=O)O` (stereo not drawn) returned a melting point of 148 to 149 °C.

Turning to `COC(=O)[C@@H]1C[C@H](OS(=O)(=O)c2ccc(Br)cc2)C(=O)[C@@H]2[C@@]3(C)C[C@@H](c4ccoc4)OC(=O)[C@H]3CC[C@]21C`, the melting point was in the range of 165 to 166 °C.

Molecule `COc1ccc(-c2cc3cc(OC)cc(C(=O)N(C)OC)c3o2)cc1` displayed a melting point of 109 to 111 °C.

For `O=C1c2c(Cl)cccc2-n2cnc(I)c2[C@@H]2CCCN12`, the melting point lay within 298 to 300 °C.

Take `O=c1oc2c(c(O)c1C(C1CC1)C1CC1)CCCCCC2Cc1ccccc1` (stereo not drawn): the melting point lay within 94 to 97 °C.

Turning to `CN(c1cccc2cc(C3=NCC(CC(=O)N4CCS(=O)CC4)S3)[nH]c12)S(=O)(=O)c1cccs1` (stereo not drawn), the melting point came to 149 °C.

In the case of `CC(C)(C)OC(=O)NCC(=O)c1cccnc1`, the melting point fell in the range of 98 to 99 °C.

Take `COc1cc2c(cc1O)CCCC2=O`: the melting point lay in the range of 117 to 119 °C.

On to `O=C1NCCc2c(OCCCCl)cccc21`, for which the melting point fell in the range of 132 to 133 °C.

`COC(=O)CCCc1ccc(CN2CCN(c3ccncc3)CC2)cc1` displayed a melting point of 126 to 127 °C.

In turn, `O=[N+]([O-])c1ccc(Sc2cc(Cl)cc(Cl)c2)c(S(=O)(=O)NC2CN3CCC2CC3)c1` (stereo not drawn) came in with a melting point of 256 °C.

For `CC(c1cccnc1)N(c1ccc(F)cc1F)S(C)(=O)=O` (stereo not drawn), the melting point lay in the range of 76 to 78 °C.

The molecule `Cc1cc2c(nc1C(O)c1ccccc1)CCCCC2` (stereo not drawn) came in with a melting point of 130 to 132 °C.

`O=c1oc(OCc2ccccc2)c(Cl)c2ccccc12` had a melting point of 92 °C.

As to `CCc1cc2c(s1)N(C(=O)NCCN(C)C)CCN=C2c1ccccc1Cl`, the melting point is 160 to 162 °C.

`O=C(CSc1ccccc1)c1ccc2[nH]c3ncc(Cl)cc3c2c1`: the melting point was in the range of 238 to 239 °C.

For orientation: melting point means the temperature, or range, at which the solid turns liquid.
